Laboratory results: ChEMBL document CHEMBL5137021, “Organotropic dendrons with high potency as HIV-1, HIV-2 and EV-A71 cell entry inhibitors” (Eur J Med Chem, 2022)

Experiments:
[1] = Cytotoxicity against human RD cells assessed as cell viability measured after 5 days by MTS assay; assay type: toxicity, cell-based; details: time 5 day
[2] = Selectivity index, ratio of CC50 for human RD cells to EC50 for antiviral activity against EV-A71; assay type: toxicity; details: read-out: Ratio CC50/EC50
[3] = tested on: Human immunodeficiency virus 1; test: Antiviral activity against HIV1 NL4-3 infected in human MT4 cells assessed as protection against virus induced cytopatheic effect measured after 5 days by MTS assay; assay type: functional, organism-based; details: Human immunodeficiency virus 1, NL4-3, MT4, 120 h
[4] = tested on: Human immunodeficiency virus 2; test: Antiviral activity against HIV2 ROD infected in human MT4 cells assessed as protection against virus induced cytopatheic effect measured after 5 days by MTS assay; assay type: functional, organism-based; details: Human immunodeficiency virus 2, ROD, MT4, 120 h
Enterovirus A71 [5] = test: Antiviral activity against EV-A71 infected in RD cells assessed as protection against virus induced cytopatheic effect measured after 5 days by MTS assay; assay type: functional, organism-based; details: Enterovirus A, 120 h
[6] = Cytotoxicity against human MT4 cells assessed as cell viability measured after 5 days by MTS assay; assay type: toxicity, cell-based; details: time 5 day
[7] = Selectivity index, ratio of CC50 for human MT4 cells to EC50 for antiviral activity against HIV-1 NL4.3; assay type: toxicity; details: read-out: Ratio CC50/EC50
Enterovirus A71 [8] = test: Antiviral activity against Enterovirus A71 BrCr harboring VP1_S184T_P246S mutant infected in RD cells assessed as protection against virus induced cytopatheic effect measured after 5 days by MTS assay; assay type: functional, organism-based
Enterovirus A71 [9] = test: Antiviral activity against Enterovirus A71 BrCr harboring VP1_S184T mutant infected in RD cells assessed as protection against virus induced cytopatheic effect measured after 5 days by MTS assay; assay type: functional, organism-based
Enterovirus A71 [10] = test: Antiviral activity against Enterovirus A71 BrCr harboring VP1_P246S mutant infected in RD cells assessed as protection against virus induced cytopatheic effect measured after 5 days by MTS assay; assay type: functional, organism-based

Compound	CC50 at 120 h [1]	selectivity ratio [2]	EC50 [3]	EC50 [4]	EC50 (Enterovirus A71 [5])	CC50 at 120 h [6]	selectivity ratio [7]	EC50 (Enterovirus A71 [8])	EC50 (Enterovirus A71 [9])	EC50 (Enterovirus A71 [10])
O=C(CCC(CCC(=O)NC(Cc1c(-c2cc(C(=O)O)cc(C(=O)O)c2)[nH]c2ccccc12)C(=O)O)(CCC(=O)NC(Cc1c(-c2cc(C(=O)O)cc(C(=O)O)c2)[nH]c2ccccc12)C(=O)O)NC(=O)CCCCNc1ccc([N+](=O)[O-])cc1[N+](=O)[O-])NC(Cc1c(-c2cc(C(=O)O)cc(C(=O)O)c2)[nH]c2ccccc12)C(=O)O (centres undefined)	> 100000 nM	> 93	3610 nM	130 nM	1070 nM	> 100000 nM	> 28			
CCOC(=O)c1ccc(OCCC2CCN(c3ccc(C)nn3)CC2)cc1 [PIRODAVIR]	> 100000 nM	> 333								
O=C(CCC(CCC(=O)NC(Cc1c(-c2cc(C(=O)O)cc(C(=O)O)c2)[nH]c2ccccc12)C(=O)O)(CCC(=O)NC(Cc1c(-c2cc(C(=O)O)cc(C(=O)O)c2)[nH]c2ccccc12)C(=O)O)NC(=O)CCCCNC(=O)Nc1cc(C(=O)O)cc(C(=O)O)c1)NC(Cc1c(-c2cc(C(=O)O)cc(C(=O)O)c2)[nH]c2ccccc12)C(=O)O (centres undefined)	> 300000 nM	> 2000	200 nM	40 nM	150 nM	> 100000 nM	> 500			
O=C(CCC(CCC(=O)NC(Cc1c(-c2cc(C(=O)O)cc(C(=O)O)c2)[nH]c2ccccc12)C(=O)O)(CCC(=O)NC(Cc1c(-c2cc(C(=O)O)cc(C(=O)O)c2)[nH]c2ccccc12)C(=O)O)NC(=O)CCCCCCNC(=O)c1cc(O)c2c(c1)C(=O)c1cccc(O)c1C2=O)NC(Cc1c(-c2cc(C(=O)O)cc(C(=O)O)c2)[nH]c2ccccc12)C(=O)O (centres undefined)	> 100000 nM	> 69	3110 nM	710 nM	1430 nM	> 100000 nM	> 32			
O=C(CCC(CCC(=O)N[C@@H](Cc1c[nH]c2ccccc12)C(=O)O)(CCC(=O)N[C@@H](Cc1c[nH]c2ccccc12)C(=O)O)NC(=O)CCOCC(COCCC(=O)NC(CCC(=O)N[C@@H](Cc1c[nH]c2ccccc12)C(=O)O)(CCC(=O)N[C@@H](Cc1c[nH]c2ccccc12)C(=O)O)CCC(=O)N[C@@H](Cc1c[nH]c2ccccc12)C(=O)O)(COCCC(=O)NC(CCC(=O)N[C@@H](Cc1c[nH]c2ccccc12)C(=O)O)(CCC(=O)N[C@@H](Cc1c[nH]c2ccccc12)C(=O)O)CCC(=O)N[C@@H](Cc1c[nH]c2ccccc12)C(=O)O)COCCC(=O)NC(CCC(=O)N[C@@H](Cc1c[nH]c2ccccc12)C(=O)O)(CCC(=O)N[C@@H](Cc1c[nH]c2ccccc12)C(=O)O)CCC(=O)N[C@@H](Cc1c[nH]c2ccccc12)C(=O)O)N[C@@H](Cc1cc2ccccc2[nH]1)C(=O)O	25000 nM	> 203	2300 nM	6600 nM	300 nM	> 100000 nM	> 43	8900 nM	2000 nM	4700 nM
O=C(CCC(CCC(=O)NC(Cc1c(-c2cc(C(=O)O)cc(C(=O)O)c2)[nH]c2ccccc12)C(=O)O)(CCC(=O)NC(Cc1c(-c2cc(C(=O)O)cc(C(=O)O)c2)[nH]c2ccccc12)C(=O)O)NC(=O)Nc1cccc(C(=O)O)c1)NC(Cc1c(-c2cc(C(=O)O)cc(C(=O)O)c2)[nH]c2ccccc12)C(=O)O (centres undefined)	> 68000 nM	> 142	710 nM	110 nM	480 nM	> 100000 nM	> 141			
O=C(CCC(CCC(=O)NC(Cc1c(-c2cc(C(=O)O)cc(C(=O)O)c2)[nH]c2ccccc12)C(=O)O)(CCC(=O)NC(Cc1c(-c2cc(C(=O)O)cc(C(=O)O)c2)[nH]c2ccccc12)C(=O)O)NC(=O)Nc1ccc2ccccc2c1)NC(Cc1c(-c2cc(C(=O)O)cc(C(=O)O)c2)[nH]c2ccccc12)C(=O)O (centres undefined)	> 68000 nM	> 70	380 nM	220 nM	970 nM	> 100000 nM	> 263			
O=C(CCC(CCC(=O)NC(Cc1c(-c2cc(C(=O)O)cc(C(=O)O)c2)[nH]c2ccccc12)C(=O)O)(CCC(=O)NC(Cc1c(-c2cc(C(=O)O)cc(C(=O)O)c2)[nH]c2ccccc12)C(=O)O)NC(=O)CCCCCCCCCCNC(=O)Nc1cc(C(=O)O)cc(C(=O)O)c1)NC(Cc1c(-c2cc(C(=O)O)cc(C(=O)O)c2)[nH]c2ccccc12)C(=O)O (centres undefined)	> 100000 nM	> 72	3990 nM	960 nM	1380 nM	> 100000 nM	> 25			
CN[C@@H]1[C@H](O[C@@H]2OC[C@@H](O)[C@H](O)[C@H]2O)[C@@H](O)[C@H](O[C@H]2c3cc(C)c(C(=O)N[C@H](C)C(=O)O)c(O)c3-c3c(cc4c(c3O)C(=O)c3cc(OC)cc(O)c3C4=O)[C@@H]2O)O[C@@H]1C [PRADIMICIN A]						> 100000 nM	> 30			
O=C(CCC(CCC(=O)NC(Cc1c(-c2cc(C(=O)O)cc(C(=O)O)c2)[nH]c2ccccc12)C(=O)O)(CCC(=O)NC(Cc1c(-c2cc(C(=O)O)cc(C(=O)O)c2)[nH]c2ccccc12)C(=O)O)NC(=O)Nc1ccc2c(c1)Cc1ccccc1-2)NC(Cc1c(-c2cc(C(=O)O)cc(C(=O)O)c2)[nH]c2ccccc12)C(=O)O (centres undefined)	> 100000 nM	> 400	60 nM	50 nM	250 nM	> 100000 nM	> 1670			
NC(CCC(=O)NC(Cc1c(-c2cc(C(=O)O)cc(C(=O)O)c2)[nH]c2ccccc12)C(=O)O)(CCC(=O)NC(Cc1c(-c2cc(C(=O)O)cc(C(=O)O)c2)[nH]c2ccccc12)C(=O)O)CCC(=O)NC(Cc1c(-c2cc(C(=O)O)cc(C(=O)O)c2)[nH]c2ccccc12)C(=O)O (centres undefined)	> 100000 nM	> 133	460 nM	100 nM	750 nM	> 50000 nM	> 109			
O=C(CCC(CCC(=O)NC(Cc1c(-c2cc(C(=O)O)cc(C(=O)O)c2)[nH]c2ccccc12)C(=O)O)(CCC(=O)NC(Cc1c(-c2cc(C(=O)O)cc(C(=O)O)c2)[nH]c2ccccc12)C(=O)O)NC(=O)Nc1cc(C(=O)O)cc(C(=O)O)c1)NC(Cc1c(-c2cc(C(=O)O)cc(C(=O)O)c2)[nH]c2ccccc12)C(=O)O (centres undefined)	> 60000 nM	> 150	290 nM	90 nM	400 nM	> 100000 nM	> 345			
O=C(CCC(CCC(=O)NC(Cc1c(-c2cc(C(=O)O)cc(C(=O)O)c2)[nH]c2ccccc12)C(=O)O)(CCC(=O)NC(Cc1c(-c2cc(C(=O)O)cc(C(=O)O)c2)[nH]c2ccccc12)C(=O)O)NC(=O)COCCOCCNc1ccc([N+](=O)[O-])cc1[N+](=O)[O-])NC(=O)Cc1c(-c2cc(C(=O)O)cc(C(=O)O)c2)[nH]c2ccccc12 (centres undefined)	> 100000 nM	> 103	8390 nM	560 nM	970 nM	> 100000 nM	> 12			
